# Source: patent US11666645B2, “CD200 inhibitors and methods of use thereof” (REGENTS OF THE UNIVERSITY OF MINNESOTA, priority 2015, dated 2023)
# “Also recorded” adds a separate entry of the source.
# What was measured:
# [1] = test system: tumor bearing mice; test: Prime-boost OVA vaccination of tumor bearing mice, SIINFEKL specific CD8+ T cell expansion by flow cytometry; type: in vivo, mouse; conditions: tumor bearing mice vaccinated with OVA+Poly:ICLC +/- inhibitor, whole blood
# Method: FIGS. 3A-3B. FIG. 3A) Vaccination scheme. FIG. 3B) Tumor bearing or non-tumor bearing mice were vaccinated on day 2 and 8 with an agonist (4012) or CD200 inhibitor (6059) only, and on days 3-6 and […] with OVA+Poly:ICLC +/− the agonist (4012) or CD200 inhibitor (6059). B) Mice were bled on day 10, whole blood was stained with an anti-CD8 and SIINFEKL specific detramer (SEQ ID NO: 18), lysed and analyzed by flow cytometry.
# (§1) FIGS. 12A-12C. CD200 inhibitor reverses the suppressive effects of the tumor environment. Tumor and non-tumor bearing mice were vaccinated with OVA+Poly:ICLC +/− the CD200 inhibitor 6059 and analyzed for FIG. 12A) SIINFEKL/Kb^+CD8^+ T cell expansion (“SIINFEKL” disclosed as SEQ ID NO: 18). FIG. 12B) Lymphocytes were harvested and stimulated with SIINFEKL peptide (SEQ ID NO: 18). Supernatants were analyzed for TNFα and IFNγ secretion. FIG. 12C) The CD200 inhibitor 6059 was added to OVA+exosomes. Error bars indicate +/−SEM (n=4/group; *P<0.05; by t-test).
# (§2) These experiments support the hypothesis that exosomes express the CD200 protein thereby inhibiting the ability to prime a T cell response in the draining lymph nodes of glioma bearing mice. Other CD200 inhibitors were similarly evaluated (FIGS. 3A-3B, 9A-9B and 24A-24B).
# [2] = test system: tumor bearing mice; test: Recall response: lymphocytes of vaccinated tumor bearing mice restimulated with OVA/SIINFEKL, cytokine release; type: in vivo, mouse; conditions: lymphocytes from cervical lymph nodes of vaccinated tumor bearing mice restimulated, supernatant after 48 hrs
# Excerpt: FIGS. 4A-4B. Tumor bearing or non-tumor bearing mice were vaccinated on day 2 and 8 with an agonist or CD200 inhibitor only, and on days 3-6 and 10 with OVA+Poly:ICLC +/− the CD200 inhibitor 6059. On day 10, were harvested and stimulated with OVA protein to measure a recall response via cytokine release. FIG. 4A) TNF alpha (PG/ML) levels from tumor bearing mice. FIG. 4B) IFN gamma (PG/ML) levels in tumor bearing mice.
# as §1, §2
# [3] = test system: glioma-derived exosomes; test: Vaccination of non-tumor bearing mice with OVA + glioma-derived exosomes +/- inhibitor; type: in vivo, mouse; conditions: OVA+glioma-derived exosomes+antagonist
# Method: as §1, §2
# [4] = test system: GL261 tumor bearing mice; test: GL261 glioma model, inhibitor inoculated into the tumor site in the brain, then tumor lysate + inhibitor; type: in vivo, mouse; conditions: 10 μg inhibitor in the brain at tumor coordinates on day 2, then weekly tumor lysate + inhibitor
# Method: Tumor-bearing mice were inoculated in the brain with 10 μg of the inhibitor 6059 at the same coordinates at which the tumor was injected two days previously. This was followed by weekly injections of tumor lysate+inhibitor (FIGS. 5A-5B).
# [5] = test system: GL261 tumor bearing mice; test: GL261 glioma model, vaccination with tumor lysate +/- CD200 inhibitor, tumor growth and survival
# Method: FIG. 5B) Mice were imaged weekly for tumor growth. The following groups were studied: saline (1), tumor lysate (2), and tumor lysate+CD200 inhibitor (6059) (3). FIG. 5C) Percent survival post inoculation for saline (1), tumor lysate (2), and tumor lysate+CD200 inhibitor (3) groups.
# In vivo survival study. […] All vaccinations were administered in the back of the neck in tumor bearing mice.
# [6] = test system: Human immature dendritic cells; test: Human immature dendritic cells pulsed with P1 peptide or alanine-substituted versions, cytokine production; type: cell-based; conditions: human CD11b-derived immature dendritic cells (GM-CSF, IL4), supernatants
# Method: FIGS. 13A-13B. Human CD11b cells were isolated. Purified CD11b cells were differentiated to immature dendritic cells using GM-CSF and IL4. Cells were pulsed with P1, P2, P3 and P4 CD200 inhibitors (see Table 2). Supernatants were analyzed for FIG. 13A) cytokine or FIG. 13B) chemokine production.
# FIG. 16. Human CD11b cells were isolated and the purified CD11b cells were differentiated to immature dendritic cells using GM-CSF and IL4. Cells were pulsed with human P1 peptide, or a mutated version thereof comprising an alanine substitution (denoted by P1 and the amino acid substitution and position; e.g., P1A1, P1A2, P1A3, P1A4, P1A5, P1A6, etc.) (see, Table 2). Supernatants were analyzed for cytokine production.
# [7] = test system: splenocytes + OT-1 T cells; test: Splenocytes pulsed with OVA + inhibitor, OT-1 T cells added, cytokine production by flow cytometric bead array; type: cell-based, mouse; conditions: splenocytes pulsed 24 hours with OVA+inhibitor, 48 hours with OT-1 T cells
# Method: FIGS. 11A-11B. Splenocytes were pulsed with OVA+an inhibitor peptide and incubated for 24 h. Following incubation, cells were washed, purified OT1 were added to wells and incubated for an additional 48 hours then analyzed for FIG. 11A) TNFa and IL-6 production; and FIG. 11B) IL-2 and IL-17 production. Error bars indicate +/−SEM (n=4/group; *P<0.05; ** P<0.01).
# We hypothesize that the two different human CD200 inhibitor peptides (peptide 1=hP1 & peptide 2=hP2, table 2) are hitting different activation receptors on dendritic cells, although only one has been identified. […] We want to generate the immune response most beneficial for our patients. These conclusions were supported by experiments where splenocytes were pulsed with OVA+selected CD200 inhibitors (6061, 6069, 4004, 4006, 4013) for 24 hours. The splenocytes were then washed and cultured for 48 hours with the addition of OT-1 T cells. The cultures were then assessed for cytokine production using a flow cytometric bead array.
# [8] = test system: PPIA; test: PPIA production in monocytes with CD200 inhibitor; type: cell-based; conditions: peptide binds the CD200 activating receptor
# Excerpt: FIGS. 18A-18E. Experimental Model. CD200 is solubilized from the tumor or endothelial interacting on its receptor (CD200R). This CD200/CD200R interaction induces the upregulation of PPIA through the MYC pathway decreasing TNF alpha and IL2 production needed for an immune response (FIG. 18A).
# These antagonist have been reported to reverse the differentiation to as myeloid-derived suppressor cells following interaction with soluble CD200 (FIG. 18C) (Moertel et al., J Immunother Can; 2(1):46) and in vivo (FIG. 23). The mechanism of […] protein inhibition has been determined through the upregulation of an immunosuppressive protein PPIA (FIGS. 18A-18E) which is inhabited with the use of the CD200 inhibitor P1A12.
sequence,measurement,setting,value
NTIGDGGCY [Inhibitor 6059],SIINFEKL specific CD8+ T cell expansion: effect on tumor induced suppression,[1],reversed tumor induced suppression; also recorded: reversed the suppressive effects of the tumor microenvironment; also recorded: reversed the suppressive effects in tumor-bearing mice
same,"Recall response via cytokine release (TNF alpha, IFN gamma): effect on tumor induced suppression",[2],modulate/reverse glioma-induced suppression; also recorded: reversed the suppressive effects of the tumor microenvironment
same,Suppression induced by exosomes,[3],partially reversed the suppression induced by exosomes
same,Tumor growth after inhibitor into the tumor site in the CNS,[4],Tumor growth was delayed
same,Survival benefit,[5]; GL261 mice vaccinated weekly with tumor lysates + inhibitor vs saline or tumor lysates,increased survival benefit
same,Tumor growth,"[5]; GL261 mice, tumor lysate (65 μg) + inhibitor (50 μg), imaged weekly, vs saline or tumor lysate",slowed tumor growth
same,Enhancement of survival,"[5]; GL261 mice, tumor lysate (65 μg) + inhibitor (50 μg), vs saline or tumor lysate",30%
SQKVSATACLTLY [hP1A6],Cytokine production (response) vs human P1 peptide,[6],enhanced TNF-α and IL-β production
same,Cytokine production (response) vs human P1 peptide,[6]; listed as P1A6,significantly enhanced response
"SQKVSGTACLTLY [Inhibitor 4006, P3 in b288]","Cytokine profile (TNFa, IL-6, IL-2, IL-17)",[7],different cytokine profiles
TASLRCSLKTSQE [Inhibitor 4004],"Cytokine profile (TNFa, IL-6, IL-2, IL-17)",[7],different cytokine profiles
"VTWQKKKAVSPAN [Inhibitor P1A12, P1 in b288]",Production of PPIA,[8],inhibits the production of PPIA
